Experimental data from ChEMBL document CHEMBL3885881, “DrugMatrix”.

Organism: Rattus norvegicus
Assay: DrugMatrix - Regimen: Daily Repeat
Format: toxicity, organism-based, Sprague-Dawley
Set-up: regimen Daily Repeat, gender Male, age 6-8 weeks
Conditions: in vivo, po, 75 mg/kg, route oral GAVAGE, dose level High, vehicle .5 % CMC; for ABSOLUTE BASOPHIL / ABSOLUTE EOSINOPHIL / ABSOLUTE LYMPHOCYTE / ABSOLUTE MONOCYTE / ABSOLUTE SEGMENTED NEUTROPHIL / BASOPHIL / EOSINOPHIL / ERYTHROCYTE COUNT / HEMATOCRIT / HEMOGLOBIN / LEUKOCYTE COUNT / LYMPHOCYTE / MEAN CORPUSCULAR HEMOGLOBIN / MEAN CORPUSCULAR HEMOGLOBIN CONCENTRATION / MEAN CORPUSCULAR VOLUME / MONOCYTE / NEUTROPHIL / NUCLEATED RED BLOOD CELLS / PLATELET COUNT: tissue Blood
[1] = 72 h, tissue Plasma, time 3 day
[2] = 120 h, tissue Plasma, time 5 day

## Nc1ccc(Cl)cc1 [4-CHLOROANILINE]
72 h, time 3 day
  ABSOLUTE BASOPHIL: 0 CELLS/uL
  ABSOLUTE EOSINOPHIL: 340 CELLS/uL
  ABSOLUTE LYMPHOCYTE: 18564 CELLS/uL
  ABSOLUTE MONOCYTE: 396 CELLS/uL
  ABSOLUTE SEGMENTED NEUTROPHIL: 3900 CELLS/uL
  BASOPHIL: 0%
  EOSINOPHIL: 1.67%
  ERYTHROCYTE COUNT: 5.42 x10E6/uL
  HEMATOCRIT: 35.1%
  HEMOGLOBIN: 13.57 G/DL
  LEUKOCYTE COUNT: 27.87 x10E3/uL
  LYMPHOCYTE: 79.33%
  MEAN CORPUSCULAR HEMOGLOBIN: 25.13 pg
  MEAN CORPUSCULAR HEMOGLOBIN CONCENTRATION: 38.77 G/DL
  MEAN CORPUSCULAR VOLUME: 64.77 fL
  MONOCYTE: 1.67%
  NEUTROPHIL: 17.33%
  NUCLEATED RED BLOOD CELLS: 1 /100WBC
  PLATELET COUNT: 1129 x10E3/uL
[1]
  ALANINE AMINOTRANSFERASE: 48.33 u/L
  ALBUMIN: 4.23 G/DL
  ALKALINE PHOSPHATASE: 297 u/L
  ASPARTATE AMINOTRANSFERASE: 88.67 u/L
  BLOOD UREA NITROGEN: 14.67 mg/dL
  CARBON DIOXIDE: 26.67 mmol/L
  CHLORIDE: 104 MEQ/L
  CHOLESTEROL: 52.67 mg/dL
  CREATININE: 0.27 mg/dL
  GLUCOSE: 226.33 mg/dL
  LACTATE DEHYDROGENASE: 200 u/L
  LIPASE: 9.67 u/L
  PHOSPHORUS: 13.43 mg/dL
  POTASSIUM: 6.55 MEQ/L
  SODIUM: 147 MEQ/L
  TOTAL BILIRUBIN: 0.23 mg/dL
  TOTAL PROTEIN: 6.3 G/DL
  URIC ACID: 2.03 mg/dL
120 h, time 5 day
  ABSOLUTE BASOPHIL: 0 CELLS/uL
  ABSOLUTE EOSINOPHIL: 666.67 CELLS/uL
  ABSOLUTE LYMPHOCYTE: 19854.67 CELLS/uL
  ABSOLUTE MONOCYTE: 430.67 CELLS/uL
  ABSOLUTE SEGMENTED NEUTROPHIL: 5848 CELLS/uL
  BASOPHIL: 0%
  EOSINOPHIL: 2.33%
  ERYTHROCYTE COUNT: 4.48 x10E6/uL
  HEMATOCRIT: 32.57%
  HEMOGLOBIN: 13.73 G/DL
  LEUKOCYTE COUNT: 26.8 x10E3/uL
  LYMPHOCYTE: 74%
  MEAN CORPUSCULAR HEMOGLOBIN: 30.77 pg
  MEAN CORPUSCULAR HEMOGLOBIN CONCENTRATION: 42.2 G/DL
  MEAN CORPUSCULAR VOLUME: 72.87 fL
  MONOCYTE: 1.67%
  NEUTROPHIL: 22%
  NUCLEATED RED BLOOD CELLS: 1.33 /100WBC
  PLATELET COUNT: 1147 x10E3/uL
[2]
  ALANINE AMINOTRANSFERASE: 61.33 u/L
  ALBUMIN: 4.23 G/DL
  ALKALINE PHOSPHATASE: 360.33 u/L
  ASPARTATE AMINOTRANSFERASE: 93.67 u/L
  BLOOD UREA NITROGEN: 13 mg/dL
  CARBON DIOXIDE: 31.33 mmol/L
  CHLORIDE: 102.33 MEQ/L
  CHOLESTEROL: 64.67 mg/dL
  CREATININE: 0.2 mg/dL
  GLUCOSE: 157.33 mg/dL
  LACTATE DEHYDROGENASE: 180.67 u/L
  LIPASE: 9 u/L
  PHOSPHORUS: 11.23 mg/dL
  POTASSIUM: 6.43 MEQ/L
  SODIUM: 148.33 MEQ/L
  TOTAL BILIRUBIN: 0.43 mg/dL
  TOTAL PROTEIN: 6.23 G/DL
